Active and inactive are the calls of the source. The calls are words filed in the database; no cut-off is given here.
Key:
[1] = target: T1, Melanin-concentrating hormone receptor 1 (Homo sapiens, UniProt Q99705); assay: Antagonist activity at CART form of human MCH1 receptor expressed in HEK293 cells coexpressing Galphaq assessed as inhibition of MCH-induced intracellular calcium level by FLIPR assay; format: functional, cell-based
Target sequence in this assay (Q99705 whole entry, looked up): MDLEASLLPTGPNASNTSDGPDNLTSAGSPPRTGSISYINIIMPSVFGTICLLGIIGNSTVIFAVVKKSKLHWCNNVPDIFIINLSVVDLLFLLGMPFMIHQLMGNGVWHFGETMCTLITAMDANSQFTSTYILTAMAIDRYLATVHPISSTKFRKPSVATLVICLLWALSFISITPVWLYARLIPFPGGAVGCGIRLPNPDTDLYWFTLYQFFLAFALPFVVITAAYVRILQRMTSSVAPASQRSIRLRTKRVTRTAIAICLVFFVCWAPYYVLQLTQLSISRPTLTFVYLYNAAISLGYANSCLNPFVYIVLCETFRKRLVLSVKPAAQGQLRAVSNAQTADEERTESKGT

[2] = target: 5-hydroxytryptamine receptor 2B (Homo sapiens, UniProt P41595); assay: Displacement of [3H]rauwolsine from human 5HT2B receptor
5-hydroxytryptamine receptor 2B, sequence (P41595 whole entry): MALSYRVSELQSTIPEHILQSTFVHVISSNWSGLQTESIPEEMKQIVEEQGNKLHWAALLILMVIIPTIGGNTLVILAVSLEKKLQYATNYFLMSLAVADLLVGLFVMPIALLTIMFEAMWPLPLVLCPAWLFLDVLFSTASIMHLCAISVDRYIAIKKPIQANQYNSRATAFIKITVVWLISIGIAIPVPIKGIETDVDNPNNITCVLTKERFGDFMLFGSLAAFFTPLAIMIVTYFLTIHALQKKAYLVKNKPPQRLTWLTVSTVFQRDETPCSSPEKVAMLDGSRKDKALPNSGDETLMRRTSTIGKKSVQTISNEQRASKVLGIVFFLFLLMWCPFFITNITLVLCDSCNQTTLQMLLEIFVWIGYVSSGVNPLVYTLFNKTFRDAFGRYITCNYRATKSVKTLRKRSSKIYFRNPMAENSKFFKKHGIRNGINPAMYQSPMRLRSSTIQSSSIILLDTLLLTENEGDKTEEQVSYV

Histamine H1 receptor = Histamine H1 receptor (Homo sapiens, UniProt P35367); assay: Displacement of [3H]pyrilamine from human histamine H1 receptor
Histamine H1 receptor, sequence (P35367 whole entry): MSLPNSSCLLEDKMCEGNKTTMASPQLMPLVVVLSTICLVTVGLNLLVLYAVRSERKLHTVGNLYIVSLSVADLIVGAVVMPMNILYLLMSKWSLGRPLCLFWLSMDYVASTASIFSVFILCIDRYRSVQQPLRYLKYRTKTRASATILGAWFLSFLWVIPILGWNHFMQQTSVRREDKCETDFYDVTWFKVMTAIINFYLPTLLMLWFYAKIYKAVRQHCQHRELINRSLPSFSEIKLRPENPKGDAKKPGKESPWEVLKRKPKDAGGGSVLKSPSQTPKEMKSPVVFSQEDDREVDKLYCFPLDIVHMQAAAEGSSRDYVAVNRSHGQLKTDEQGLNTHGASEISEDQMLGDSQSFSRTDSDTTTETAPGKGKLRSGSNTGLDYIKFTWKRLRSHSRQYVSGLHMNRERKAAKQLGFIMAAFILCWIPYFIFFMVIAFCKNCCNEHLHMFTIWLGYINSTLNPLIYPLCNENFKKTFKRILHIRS

[3] = target: T2, Alpha-2A adrenergic receptor (Homo sapiens, UniProt P08913); assay: Displacement of [3H]MK-912 from human adrenergic alpha2A receptor
T2 sequence (P08913 whole entry): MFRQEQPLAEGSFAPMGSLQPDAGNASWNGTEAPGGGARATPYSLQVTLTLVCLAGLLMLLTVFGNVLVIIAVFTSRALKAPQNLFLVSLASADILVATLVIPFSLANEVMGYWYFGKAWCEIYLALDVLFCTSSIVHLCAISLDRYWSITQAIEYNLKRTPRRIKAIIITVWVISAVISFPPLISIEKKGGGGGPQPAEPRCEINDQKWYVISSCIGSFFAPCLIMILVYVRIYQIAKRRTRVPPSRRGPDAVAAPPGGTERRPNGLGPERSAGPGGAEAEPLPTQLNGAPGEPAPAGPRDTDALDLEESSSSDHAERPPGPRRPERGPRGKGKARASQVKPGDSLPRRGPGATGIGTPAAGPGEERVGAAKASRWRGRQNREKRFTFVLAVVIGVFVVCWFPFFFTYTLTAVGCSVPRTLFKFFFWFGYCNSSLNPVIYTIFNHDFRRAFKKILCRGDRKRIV

[4] = target: T3, Alpha-1A adrenergic receptor (Homo sapiens, UniProt P35348); assay: Displacement of [3H]prazosin from human adrenergic alpha1A receptor
T3 sequence (P35348 whole entry): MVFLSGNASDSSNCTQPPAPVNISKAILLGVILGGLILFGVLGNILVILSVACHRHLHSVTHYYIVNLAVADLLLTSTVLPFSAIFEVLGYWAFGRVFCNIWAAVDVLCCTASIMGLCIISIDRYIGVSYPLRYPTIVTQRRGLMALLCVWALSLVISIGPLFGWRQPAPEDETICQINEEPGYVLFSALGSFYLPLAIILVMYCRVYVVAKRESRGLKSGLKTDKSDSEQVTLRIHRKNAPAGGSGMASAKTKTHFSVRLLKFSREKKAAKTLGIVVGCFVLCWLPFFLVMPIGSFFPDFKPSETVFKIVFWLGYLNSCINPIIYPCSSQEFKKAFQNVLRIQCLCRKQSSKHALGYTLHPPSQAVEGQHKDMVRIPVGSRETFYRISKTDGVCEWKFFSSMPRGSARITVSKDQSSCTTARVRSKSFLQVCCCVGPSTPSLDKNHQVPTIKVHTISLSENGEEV

[5] = target: T1, Melanin-concentrating hormone receptor 1; assay: Antagonist activity at CART form of human MCH1 receptor expressed in HEK293 cells coexpressing Galphaq assessed as inhibition of MCH-induced intracellular calcium level up to 10 uM by FLIPR assay; format: functional, cell-based
Target sequence in this assay (Q99705 whole entry): as the sequence (Q99705 whole entry, looked up) above

[6] = Plasma concentration in Sprague-Dawley rat at 10 mg/kg, po after 2 hrs; format: ADME, organism-based; parameters: dose 10 mg/kg, route oral
Rattus norvegicus [7] = assay: Reduction in food intake in diet-induced obese Wistar rat chronic feeding model at 5 mg/kg, po once daily after 28 days; format: functional, organism-based; parameters: dose 5 mg/kg
Rattus norvegicus [8] = assay: Reduction in food intake in diet-induced obese Wistar rat chronic feeding model at 1 mg/kg, po once daily after 28 days; format: functional, organism-based; parameters: dose 1 mg/kg
Rattus norvegicus [9] = assay: Reduction in food intake in diet-induced obese Wistar rat chronic feeding model at 15 mg/kg, po once daily after 3 days; format: functional, organism-based; parameters: dose 15 mg/kg
Rattus norvegicus [10] = assay: Reduction in food intake in diet-induced obese Wistar rat chronic feeding model at 10 mg/kg, po once daily after 2 days; format: functional, organism-based; parameters: dose 10 mg/kg
Rattus norvegicus [11] = assay: Reduction in body weight in diet-induced obese Wistar rat chronic feeding model at 15 mg/kg, po once daily up to 14 days measured after recovery period; format: functional, organism-based; parameters: dose 15 mg/kg
Rattus norvegicus [12] = assay: Reduction in body weight in diet-induced obese Wistar rat chronic feeding model at 15 mg/kg, po once daily after 14 days relative to control; format: functional; parameters: scale not given: the % may be the effect or the level left
[13] = Drug level in Sprague-Dawley rat brain at 10 mg/kg, po after 4 hrs; format: ADME, organism-based; parameters: dose 10 mg/kg, route oral
Rattus norvegicus [14] = assay: Reduction in body weight in diet-induced obese Wistar rat chronic feeding model at 1 mg/kg, po once daily after 28 days; format: functional, organism-based; parameters: dose 1 mg/kg
Rattus norvegicus [15] = assay: Reduction in food intake in diet-induced obese Wistar rat chronic feeding model at 15 mg/kg, po once daily up to 14 days measured after recovery period; format: functional, organism-based; parameters: dose 15 mg/kg
Rattus norvegicus [16] = assay: Reduction in food intake in diet-induced obese Wistar rat chronic feeding model at 10 mg/kg, po once daily up to 28 days measured after 2 weeks of recovery period; format: functional, organism-based; parameters: dose 10 mg/kg
Rattus norvegicus [17] = assay: Toxicity in rat at 100 mg/kg, po once daily after 14 days; settings: in vivo, 336 h
Rattus norvegicus [18] = assay: Reduction in body weight in diet-induced obese Wistar rat chronic feeding model at 10 mg/kg, po once daily after 28 days relative to control; format: functional; parameters: scale not given: the % may be the effect or the level left
Rattus norvegicus [19] = assay: Reduction in body weight in diet-induced obese Wistar rat chronic feeding model at 5 mg/kg, po once daily after 28 days relative to control; format: functional; parameters: scale not given: the % may be the effect or the level left
[20] = Plasma concentration in Sprague-Dawley rat at 10 mg/kg, po after 4 hrs; format: ADME, organism-based; parameters: dose 10 mg/kg, route oral
Rattus norvegicus [21] = assay: Reduction in body weight in diet-induced obese Wistar rat chronic feeding model at 10 mg/kg, po once daily up to 28 days measured after 2 weeks of recovery period; format: functional, organism-based; parameters: dose 10 mg/kg
[22] = Drug level in Sprague-Dawley rat brain at 10 mg/kg, po after 2 hrs; format: ADME, organism-based; parameters: dose 10 mg/kg, route oral
[23] = target: T4, 5-hydroxytryptamine receptor 1A (Homo sapiens, UniProt P08908); assay: Inhibition of human 5HT1A
T4 sequence (P08908 whole entry): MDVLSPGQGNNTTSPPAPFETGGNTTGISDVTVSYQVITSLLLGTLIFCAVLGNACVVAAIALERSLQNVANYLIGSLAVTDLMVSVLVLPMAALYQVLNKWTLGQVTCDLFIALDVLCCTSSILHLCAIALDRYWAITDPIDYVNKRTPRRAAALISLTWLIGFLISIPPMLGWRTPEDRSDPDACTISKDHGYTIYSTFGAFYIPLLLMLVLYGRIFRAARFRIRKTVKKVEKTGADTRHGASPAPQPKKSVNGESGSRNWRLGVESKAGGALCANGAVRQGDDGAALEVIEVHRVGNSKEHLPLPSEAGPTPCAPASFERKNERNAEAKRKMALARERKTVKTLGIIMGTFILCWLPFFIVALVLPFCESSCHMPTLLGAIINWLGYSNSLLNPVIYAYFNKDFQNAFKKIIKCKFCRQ

IC50 [1] [nM]	IC50 [2] [nM]	IC50 (Histamine H1 receptor) [nM]	IC50 [3] [nM]	IC50 [4] [µM]	SMILES	also measured
58					CN(C)c1cc(N(C)C)nc(N[C@H]2CC[C@@H](NC(=O)c3ccc(F)c(F)c3)CC2)n1	
64					Cc1cc(N(C)C)nc(N[C@H]2CC[C@@H](CNC(=O)c3cc(Cl)cc(Cl)c3)CC2)n1	
210					Cc1cc(N(C)C)nc(N[C@H]2CC[C@@H](CNC(=O)c3ccc(F)c(F)c3)CC2)n1	
120	320	920	210	3.6	Cc1cnc(N[C@H]2CC[C@@H](CNC(=O)c3ccc(F)c(F)c3)CC2)nc1N(C)C	
230					Cc1cc(N(C)C)nc(N[C@H]2CC[C@@H](NC(=O)c3ccc(OC(F)(F)F)cc3)CC2)n1	
46					CCN(C)c1nc(N[C@H]2CC[C@@H](NC(=O)c3ccc(F)c(F)c3)CC2)ncc1C	
					CCNc1nc(N[C@H]2CC[C@@H](NC(=O)c3ccc(F)c(F)c3)CC2)ncc1C	Activity [5]: inactive
25					Cc1cc(N(C)C)nc(N[C@H]2CC[C@@H](NC(=O)c3ccc(F)cc3)CC2)n1	
2.5					Cc1cc(N(C)C)nc(N[C@H]2CC[C@@H](NC(=O)c3ccc(F)c(F)c3)CC2)n1	
6	300	810	470	7.5	Cc1cnc(N[C@H]2CC[C@@H](NC(=O)c3ccc(F)cc3)CC2)nc1N(C)C	
8	> 10000	1210	200	1.32	Cc1cc(N(C)C)nc(N[C@H]2CC[C@@H](NC(=O)c3cc(C(F)(F)F)cc(C(F)(F)F)c3)CC2)n1	
13	120	170	1770	> 10	Cc1ccc(C(=O)N[C@H]2CC[C@@H](Nc3ncc(C)c(N(C)C)n3)CC2)cc1	
2.9	31	1600	580	2.79	Cc1cccc(C(=O)N[C@H]2CC[C@@H](Nc3ncc(C)c(N(C)C)n3)CC2)c1	
5	3100	> 10000	310	3.2	Cc1cnc(N[C@H]2CC[C@@H](CNC(=O)c3cc(C(F)(F)F)cc(C(F)(F)F)c3)CC2)nc1N(C)C	concentration at 2 h [6]: 50 ng/mL; Activity (Rattus norvegicus [7]): inactive; Activity (Rattus norvegicus [8]): inactive; Activity (Rattus norvegicus [9]): Active; Activity (Rattus norvegicus [10]): Active; Activity (Rattus norvegicus [11]): inactive; Activity (Rattus norvegicus [12]): >15%; concentration at 4 h [13]: 10 ng/g; Activity (Rattus norvegicus [14]): inactive; Activity (Rattus norvegicus [15]): inactive; Activity (Rattus norvegicus [16]): inactive; Activity (Rattus norvegicus [17]): Non-toxic; Activity (Rattus norvegicus [18]): 17%; Activity (Rattus norvegicus [19]): -5.4%; concentration at 4 h [20]: 63 ng/mL; Activity (Rattus norvegicus [21]): inactive; concentration at 2 h [22]: 9 ng/g; IC50 [23]: 4.8 µM
					COCC1=C(C(=O)OC)[C@H](c2ccc(F)c(F)c2)N(C(=O)NCCCN2CCC(c3cccc(NC(C)=O)c3)CC2)C(=O)N1 [SNAP-7941]	pA2 [1]: 9.24
					CN(C)c1ccnc(N[C@H]2CC[C@@H](NC(=O)c3ccc(F)c(F)c3)CC2)n1	Activity [5]: inactive
7.6					COc1cccc(C(=O)N[C@H]2CC[C@@H](Nc3nc(C)cc(N(C)C)n3)CC2)c1	
10	300	760	1590	> 10	Cc1cnc(N[C@H]2CC[C@@H](NC(=O)c3ccc(Cl)cc3)CC2)nc1N(C)C	

Reference: ChEMBL document CHEMBL1156067, “Pyrimidine-based antagonists of h-MCH-R1 derived from ATC0175: in vitro profiling and in vivo evaluation” (Bioorg Med Chem Lett, 2009)
